Source: paper PMC2360206 (British Journal of Cancer, 2006)
Values joined by “and” are separate entries in the source; they are usually repeats but may differ in a detail not shown here. Equal values may be shown once. Read-outs that look alike come from different tables or passages of the source.

Experiments:
human tumour xenograft = test system: human tumour xenograft; set-up: method as in Raynaud et al, 2005; details: 500 mg kg^−1 p.o. b.i.d., mouse; ref Raynaud et al, 2005; cited from earlier work
[1] = Phase I plasma pharmacokinetics in patients; format: in vivo, human; details: for Cmax / half-life / AUC(0-inf) / AUC(0-t) / Tmax: human, plasma
Procedure: For PK analysis, blood samples (approximately 8 ml each) were collected in tubes with lithium heparin anticoagulant at the following time points: pre-dose and 0.5, 1, 1.5, 2, 4, 8, 12 (pre-second dose), 13, 14 and 24 h (pre-dose if day 2) after dosing on both days 1 and 7 of the first cycle. The samples were then centrifuged at 3000 r.p.m at 4°C for 10 min, the plasma transferred to 2 ml cryovials and frozen at −70°C until analysis.
Pharmacokinetic (PK) analysis was performed using the trapezoidal method and log-linear regression. The following parameters were determined either by calculation or observation: the observed maximal concentration (Cmax), the time of observed maximal concentration (Tmax), the area under the concentration–time curve calculated by the trapezoidal rule (time 0 to last sample with a quantifiable concentration (AUC (0−tz)) and extrapolated to infinity (AUC(0−∞)), the terminal rate constant, by log-linear regression (λz) and the terminal half-life from λz. The value of AUC(0−∞) was considered unreliable if the terminal area beyond the last quantified sample was greater than 20% of the total AUC(0−∞). Pharmacokinetic (PK) data analysis was carried out using a noncompartmental analysis model with the aid of Kinetica (Innaphase Limited, Amersham, UK).

plasma proteins = test system: plasma proteins; set-up: method as in Vita et al, 2005; details: primarily albumin; ref Vita et al, 2005; cited from earlier work
Cdk4 = details: background statement, no reference given; cited from earlier work
[2] = po, 100 mg, Day 1, 100 mg b.i.d. p.o. (n=3), mean, course 1
[3] = po, 100 mg, Day 1, 100 mg b.i.d. p.o. (n=3), median, course 1
[4] = po, 100 mg, Day 7, 100 mg b.i.d. p.o. (n=3), mean, course 1
[5] = po, 100 mg, Day 7, 100 mg b.i.d. p.o. (n=3), median, course 1
[6] = po, 200 mg, Day 1, 200 mg b.i.d. p.o. (n=6), mean, course 1
[7] = po, 200 mg, Day 1, 200 mg b.i.d. p.o. (n=6), median, course 1
[8] = po, 200 mg, Day 7, 200 mg b.i.d. p.o. (n=6), mean, course 1
[9] = po, 200 mg, Day 7, 200 mg b.i.d. p.o. (n=6), median, course 1
[10] = po, 800 mg, Day 1, 800 mg b.i.d. p.o. (n=12), mean, course 1
[11] = po, 800 mg, Day 1, 800 mg b.i.d. p.o. (n=12), median, course 1
[12] = po, 800 mg, Day 7, 800 mg b.i.d. p.o. (n=8), mean, course 1
[13] = po, 800 mg, Day 7, 800 mg b.i.d. p.o. (n=8), median, course 1

CC[C@H](CO)Nc1nc(NCc2ccccc2)c2ncn(C(C)C)c2n1 [Seliciclib]
Effect on growth of a human tumour xenograft (human tumour xenograft): significant growth delay
mean maximum plasma concentration ([1]; highest dose level (800 mg)): approximately 3 μg ml^−1
Cmax ([1]; oral, 800 mg, 800 mg dose level, read-out: mean Cmax): 3e+06 ng/mL and 10 µM
half-life ([1]; oral, similar in all dose groups, read-out: terminal (elimination) half-life): 2 to 5 h
AUC(0-inf) [1, 2]: 1920 ng·h/mL
AUC(0-t) [1, 2]: 1870 ng·h/mL
Cmax ([1]; po, 100 mg, Day 1, 100 mg b.i.d. p.o. (n=3), mean, course 1, read-out: Cmax): 248 ng/mL
Tmax ([1]; po, 100 mg, Day 1, 100 mg b.i.d. p.o. (n=3), mean, course 1, read-out: Tmax (converted)): 1.87 h
half-life ([1]; po, 100 mg, Day 1, 100 mg b.i.d. p.o. (n=3), mean, course 1, read-out: t1/2): 4.45 h
AUC(0-inf) [1, 3]: 1500 ng·h/mL
AUC(0-t) [1, 3]: 1370 ng·h/mL
Cmax ([1]; po, 100 mg, Day 1, 100 mg b.i.d. p.o. (n=3), median, course 1, read-out: Cmax): 134 ng/mL
Tmax ([1]; po, 100 mg, Day 1, 100 mg b.i.d. p.o. (n=3), median, course 1, read-out: Tmax (converted)): 1.02 h
half-life ([1]; po, 100 mg, Day 1, 100 mg b.i.d. p.o. (n=3), median, course 1, read-out: t1/2): 4.63 h
AUC(0-inf) [1, 4]: 2890 ng·h/mL
AUC(0-t) [1, 4]: 2860 ng·h/mL
Cmax ([1]; po, 100 mg, Day 7, 100 mg b.i.d. p.o. (n=3), mean, course 1, read-out: Cmax): 162 ng/mL
Tmax ([1]; po, 100 mg, Day 7, 100 mg b.i.d. p.o. (n=3), mean, course 1, read-out: Tmax (converted)): 3.17 h
half-life ([1]; po, 100 mg, Day 7, 100 mg b.i.d. p.o. (n=3), mean, course 1, read-out: t1/2): 4.47 h
AUC(0-inf) [1, 5]: 3040 ng·h/mL
AUC(0-t) [1, 5]: 3030 ng·h/mL
Cmax ([1]; po, 100 mg, Day 7, 100 mg b.i.d. p.o. (n=3), median, course 1, read-out: Cmax): 152 ng/mL
Tmax ([1]; po, 100 mg, Day 7, 100 mg b.i.d. p.o. (n=3), median, course 1, read-out: Tmax (converted)): 4 h
half-life ([1]; po, 100 mg, Day 7, 100 mg b.i.d. p.o. (n=3), median, course 1, read-out: t1/2): 3.9 h
AUC(0-inf) [1, 6]: 3030 ng·h/mL
AUC(0-t) [1, 6]: 2770 ng·h/mL
Cmax ([1]; po, 200 mg, Day 1, 200 mg b.i.d. p.o. (n=6), mean, course 1, read-out: Cmax): 179 ng/mL
Tmax ([1]; po, 200 mg, Day 1, 200 mg b.i.d. p.o. (n=6), mean, course 1, read-out: Tmax (converted)): 4.65 h
half-life ([1]; po, 200 mg, Day 1, 200 mg b.i.d. p.o. (n=6), mean, course 1, read-out: t1/2): 2.93 h
AUC(0-inf) [1, 7]: 3840 ng·h/mL
AUC(0-t) [1, 7]: 3080 ng·h/mL
Cmax ([1]; po, 200 mg, Day 1, 200 mg b.i.d. p.o. (n=6), median, course 1, read-out: Cmax): 80 ng/mL
Tmax ([1]; po, 200 mg, Day 1, 200 mg b.i.d. p.o. (n=6), median, course 1, read-out: Tmax (converted)): 2.78 h
half-life ([1]; po, 200 mg, Day 1, 200 mg b.i.d. p.o. (n=6), median, course 1, read-out: t1/2): 2.48 h
AUC(0-inf) [1, 8]: 4250 ng·h/mL
AUC(0-t) [1, 8]: 2930 ng·h/mL
Cmax ([1]; po, 200 mg, Day 7, 200 mg b.i.d. p.o. (n=6), mean, course 1, read-out: Cmax): 310 ng/mL
Tmax ([1]; po, 200 mg, Day 7, 200 mg b.i.d. p.o. (n=6), mean, course 1, read-out: Tmax (converted)): 1.03 h
half-life ([1]; po, 200 mg, Day 7, 200 mg b.i.d. p.o. (n=6), mean, course 1, read-out: t1/2): 13 h
AUC(0-inf) [1, 9]: 3480 ng·h/mL
AUC(0-t) [1, 9]: 3080 ng·h/mL
Cmax ([1]; po, 200 mg, Day 7, 200 mg b.i.d. p.o. (n=6), median, course 1, read-out: Cmax): 303 ng/mL
Tmax ([1]; po, 200 mg, Day 7, 200 mg b.i.d. p.o. (n=6), median, course 1, read-out: Tmax (converted)): 1 h
half-life ([1]; po, 200 mg, Day 7, 200 mg b.i.d. p.o. (n=6), median, course 1, read-out: t1/2): 3.8 h
AUC(0-inf) [1, 10]: 53000 ng·h/mL
AUC(0-t) [1, 10]: 52700 ng·h/mL
Cmax ([1]; po, 800 mg, Day 1, 800 mg b.i.d. p.o. (n=12), mean, course 1, read-out: Cmax): 3200 ng/mL
Tmax ([1]; po, 800 mg, Day 1, 800 mg b.i.d. p.o. (n=12), mean, course 1, read-out: Tmax (converted)): 2.95 h
half-life ([1]; po, 800 mg, Day 1, 800 mg b.i.d. p.o. (n=12), mean, course 1, read-out: t1/2): 3.65 h
AUC(0-inf) [1, 11]: 57500 ng·h/mL
AUC(0-t) [1, 11]: 57400 ng·h/mL
Cmax ([1]; po, 800 mg, Day 1, 800 mg b.i.d. p.o. (n=12), median, course 1, read-out: Cmax): 3160 ng/mL
Tmax ([1]; po, 800 mg, Day 1, 800 mg b.i.d. p.o. (n=12), median, course 1, read-out: Tmax (converted)): 2 h
half-life ([1]; po, 800 mg, Day 1, 800 mg b.i.d. p.o. (n=12), median, course 1, read-out: t1/2): 3.87 h
AUC(0-inf) [1, 12]: 26600 ng·h/mL
AUC(0-t) [1, 12]: 26500 ng·h/mL
Cmax ([1]; po, 800 mg, Day 7, 800 mg b.i.d. p.o. (n=8), mean, course 1, read-out: Cmax): 2770 ng/mL
Tmax ([1]; po, 800 mg, Day 7, 800 mg b.i.d. p.o. (n=8), mean, course 1, read-out: Tmax (converted)): 1.65 h
half-life ([1]; po, 800 mg, Day 7, 800 mg b.i.d. p.o. (n=8), mean, course 1, read-out: t1/2): 3.83 h
AUC(0-inf) [1, 13]: 21300 ng·h/mL
AUC(0-t) [1, 13]: 21300 ng·h/mL
Cmax ([1]; po, 800 mg, Day 7, 800 mg b.i.d. p.o. (n=8), median, course 1, read-out: Cmax): 2640 ng/mL
Tmax ([1]; po, 800 mg, Day 7, 800 mg b.i.d. p.o. (n=8), median, course 1, read-out: Tmax (converted)): 1.78 h
half-life ([1]; po, 800 mg, Day 7, 800 mg b.i.d. p.o. (n=8), median, course 1, read-out: t1/2): 3.48 h
Tmax ([1]; po, all dose levels, oral, read-out: Tmax range (time to peak plasma concentrations)): 1 to 4 h
Tmax ([1]; po, all dose levels, oral, read-out: mean Tmax): 2.55 h
plasma clearance ([1]; patients, oral): greater than liver blood flow
Bound to plasma proteins (plasma proteins): 90%
Inhibition of Cdk4 (Cdk4): only a weak inhibitor
